# From patent US20060094017A1, “Immunogens for hiv vaccine” (priority 2003, published 2006)
# How the values were obtained:
# Mab 2G12 [1] = test: BIACore (SPR) binding of Mab 2G12 to biotinylated synthetic mimotope peptides on streptavidin chip; design: species or system human; conditions: synthetic biotinylated mimotope peptide (500 μg/ml) on streptavidin chip; 100 μl Mab 2G12 at 0.25 μg/μl, 5 μl/min
# Method: Surface plasmon resonance was also used to confirm the binding of synthetic mimotope peptides identified from the panning procedure described in Example 2 to Mab 2G12. In this assay, a solution of biotinylated mimotope peptide is injected into a flowcell containing a BIACore chip coated with streptavidin. The biotin-streptavidin interaction immobilizes the synthetic mimotope peptide on the chip surface. Mab 2G12 is then injected into the flowcell to determine if the antibody recognizes and is captured by the bound mimotope. Specifically, the streptavidin BIACore chip was warmed to room temperature for 30 minutes. The chip was then docked and primed 2× with HBS-EP (0.01M HEPES, pH 7.4, 0.15M NaCl, 3 mM EDTA, 0.005% Surfactant P20) and conditioned for three cycles with 1M NaCl/50 mM NaOH. Each synthesized, biotinylated mimotope peptide was diluted 1:2 in HBS (0.01M HEPES, pH 7.4) to a final concentration of 500 μg/ml. Seventy-five microliters of each mimotope peptide was then injected into the flowcell at a flow rate of 5 μl/min. Mab 2G12 was resuspended in sterile water to a concentration of 0.25 μg/μl, and 100 μl of the antibody was injected into the flowcell containing the captured synthetic peptide at a flow rate of 5 μl/min. The captured Mab2G12 was measure in RUs. Of the mimotopes tested by this procedure, the synthetic peptide represented by SEQ ID NO:3, WKIPDHGIVVFSWFP, bound Mab 2G12 the tightest at 1193 RUs. In comparison, RSGHKVWVVSTKESS (SEQ ID NO:1) bound at 117 RUs, VLRLMECHFQCVPSL (SEQ ID NO:4) bound at 133 RUs, and TLKSLPYRAVLGAQA (SEQ ID NO:5) bound at 37 RUs. […] Thus, the mimotope represented by SEQ ID NO:2 binds to Mab 2G12 more efficiently as a multivalent structure (e.g., when within the pIII on the tip of the filamentous phage particle).
# Mab 2G12 [2] = test: BIACore (SPR) binding of Mab 2G12 to mimotopes displayed on phage captured by anti-M13 antibody; design: species or system human; conditions: round three phage-displayed mimotope (pIII) captured via anti-M13 on RAMFc CM5 chip; 25 μl Mab 2G12 at 100 μg/ml
# Method: BIACore confirmation of mimotope binding to Mab 2G12 was determined for four of the identified peptide sequences disclosed in the present application. For the first assay, a batch of individually selected phage was prepared from the transduced E. coli cells described in Example 2. The phage were concentrated by PEG precipitation to be used in the assay. Initially, a murine anti-phage pVIII monoclonal antibody (anti-M13) is captured by a BIACore CM5 chip that is coated with a standard rabbit anti-mouse (Fc) antibody (RAMFc). The anti-M13 antibody captures the chimeric phage selected from the panning procedure described in Example 2. Mab 2G12 is then flowed over the chip in order to describe and confirm binding of the antibody to the captured chimeric phage pIII.
# Specifically, RAMFc was first immobilized on the gold surface of the BIACore CM5 chip (Uppsala, Sweden) containing dextran by amine coupling. Twenty-five microliters of anti-M13 antibody (Amersham Pharmacia Biotech, Piscataway, N.J.), at 1 mg/ml, was injected into the flowcell containing the chip at a flow rate of […] and captured by the immobilized RAMFc. The captured anti-M13 was measured in resonance units (RU). After completing the initial control tests of the flowcell, the chip was regenerated by injecting 10 μl of 20 mM HCL, 3 times, into the flowcell. To determine whether Mab 2G12 can detect the mimotopes isolated in the panning procedure described herein, 25 μl of anti-M13 at 1 mg/ml was first injected into the flowcell. Fifty microliters of the round three phage preparation of the mimotope sequence identified by SEQ ID NO:3, WKIPDHGIVVFSWFP, at >1×10^10 phage particles per ml, was injected into the flowcell. This was followed by 25 μl of Mab 2G12 at 100 μg/ml. The amount of Mab 2G12 captured on the chip was subsequently measured in RUs. This procedure was repeated for the following round three mimotopes: RSGHKVWVVSTKESS (SEQ ID NO:1), KCCFAESSRSGTGRY (SEQ ID NO:2) and VLRLMECHFQCVPSL (SEQ ID NO:4). […] Of the four mimotopes tested by this procedure, RSGHKVWVVSTKESS (SEQ ID NO:1) bound Mab 2G12 the tightest at 312 RUs. In comparison, KCCFAESSRSGTGRY (SEQ ID NO:2) bound at 120 RUs, WKIPDHGIVVFSWFP (SEQ ID NO:3) bound at 24 RUs, and VLRLMECHFQCVPSL (SEQ ID NO:4) bound at 17 RUs.
Sequence,captured Mab 2G12 (Mab 2G12 [1]),amount of Mab 2G12 captured on the chip (Mab 2G12 [2])
WKIPDHGIVVFSWFP (Synthetic peptide mimotope) [SEQ ID NO:3],1193 RUs,24 RUs
TLKSLPYRAVLGAQA (Synthetic peptide mimotope) [SEQ ID NO:5],37 RUs,–
VLRLMECHFQCVPSL (Synthetic peptide mimotope) [SEQ ID NO:4],133 RUs,17 RUs
RSGHKVWVVSTKESS (Synthetic peptide mimotope) [SEQ ID NO:1],117 RUs,312 RUs
KCCFAESSRSGTGRY (Synthetic peptide mimotope) [SEQ ID NO:2],no binding,120 RUs
